Source: patent US10604554B2, “Double-acylated GLP-1 derivatives” (Novo Nordisk A/S, priority 2012, dated 2020)
Where two headings read alike, the source gives them in different places.

Target: T1, human GLP-1 receptor (Homo sapiens, UniProt P43220)
T1 construct: expressed in transfected cells; host or cells: BHK cells, clone FCW467-12A/KZ10-1 (parent line BHKTS13), further transfected with CRE luciferase
Assay: In vitro potency (CRE luciferase; whole cells)
Type: cell-based
Set-up: EC50/pM (ratio 1% HSA/0% HSA): unit not given here
Conditions: for EC50: BHK cells; for EC50/pM (ratio 1% HSA/0% HSA): ratio of EC50 at 1% HSA to EC50 at 0% HSA
In short: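 Reporter: CRE-luciferase in BHK cells stably expressing human GLP-1R, 5×10^3 cells/well; compounds tested in buffer containing 0% or 1% HSA.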

[1] = 0% HSA, read-out: In vitro potency (CRE luciferase) EC50 (0% HSA)
[2] = In vitro potency (CRE luciferase) EC50 (1% HSA), 1% HSA
[3] = In vitro potency (CRE luciferase) EC50 (0% HSA), 0% HSA

T1 sequence (P43220 24-463): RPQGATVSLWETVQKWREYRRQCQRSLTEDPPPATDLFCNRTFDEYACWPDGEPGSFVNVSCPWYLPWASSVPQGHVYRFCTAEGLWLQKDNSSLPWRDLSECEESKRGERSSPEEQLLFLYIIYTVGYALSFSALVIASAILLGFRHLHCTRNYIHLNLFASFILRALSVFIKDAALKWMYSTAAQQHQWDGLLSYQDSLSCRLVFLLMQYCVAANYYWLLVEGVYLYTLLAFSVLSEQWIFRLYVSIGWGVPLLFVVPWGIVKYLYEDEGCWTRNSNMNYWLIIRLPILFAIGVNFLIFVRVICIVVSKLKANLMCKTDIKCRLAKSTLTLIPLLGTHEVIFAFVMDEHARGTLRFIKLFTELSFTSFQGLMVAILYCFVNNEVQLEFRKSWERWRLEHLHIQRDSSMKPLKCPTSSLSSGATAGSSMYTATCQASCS

Compound	EC50 [1] [nM]	EC50 [2] [nM]	EC50/pM (ratio 1% HSA/0% HSA)	EC50 [3] [nM]
CC[C@H](C)[C@H](NC(=O)[C@H](Cc1ccccc1)NC(=O)[C@H](CCC(=O)O)NC(=O)[C@H](CCCCNC(=O)[C@@H](N)CCCCNC(=O)COCCOCCNC(=O)COCCOCCNC(=O)CC[C@H](NC(=O)CCCCCCCCCCCOc1ccc(C(=O)O)cc1)C(=O)O)NC(=O)[C@H](C)NC(=O)[C@H](C)NC(=O)[C@H](CCC(N)=O)NC(=O)CNC(=O)[C@H](CCC(=O)O)NC(=O)[C@H](CC(C)C)NC(=O)[C@H](Cc1ccc(O)cc1)NC(=O)[C@H](CO)NC(=O)[C@H](CO)NC(=O)[C@@H](NC(=O)[C@H](CC(=O)O)NC(=O)[C@H](CO)NC(=O)[C@@H](NC(=O)[C@H](Cc1ccccc1)NC(=O)[C@@H](NC(=O)CNC(=O)[C@H](CCC(=O)O)NC(=O)C(C)(C)NC(=O)[C@@H](N)Cc1c[nH]cn1)[C@@H](C)O)[C@@H](C)O)C(C)C)C(=O)N[C@@H](C)C(=O)N[C@@H](Cc1c[nH]c2ccccc12)C(=O)N[C@@H](CC(C)C)C(=O)N[C@H](C(=O)N[C@@H](CCCNC(=N)N)C(=O)NCC(=O)N[C@@H](CCCNC(=N)N)C(=O)N[C@@H](CCCCNC(=O)[C@@H](N)CCCCNC(=O)COCCOCCNC(=O)COCCOCCNC(=O)CC[C@H](NC(=O)CCCCCCCCCCCOc1ccc(C(=O)O)cc1)C(=O)O)C(=O)O)C(C)C [Example 14, N^ε26-[(2S)-2-amino-6-[[2-[2-[2-[[2-[2-[2-[[(4S)-4-carboxy-4-[12-(4-carboxyphenoxy)dodecanoylamino]butanoyl]amino]ethoxy]ethoxy]acetyl]amino]ethoxy]ethoxy]acetyl]amino]hexanoyl], N^ε37-[(2S)-2-amino-6-[[2-[2-[2-[[2-[2-[2-[[(4S)-4-carboxy-4-[12-(4-carboxyphenoxy)dodecanoylamino]butanoyl]amino]ethoxy]ethoxy]acetyl]amino]ethoxy]ethoxy]acetyl]amino]hexanoyl]-[Aib^8,Arg^34, Lys^37]-GLP-1-(7-37)-peptide]	–	0.076	16	0.0048
CC[C@H](C)[C@H](NC(=O)[C@H](Cc1ccccc1)NC(=O)[C@H](CCC(=O)O)NC(=O)[C@H](CCCCNC(=O)[C@@H](N)CCCCNC(=O)COCCOCCNC(=O)CC[C@H](NC(=O)CC[C@H](NC(=O)CCCCCCCCCCCOc1ccc(C(=O)O)cc1)C(=O)O)C(=O)O)NC(=O)[C@H](C)NC(=O)[C@H](C)NC(=O)[C@H](CCC(N)=O)NC(=O)CNC(=O)[C@H](CCC(=O)O)NC(=O)[C@H](CC(C)C)NC(=O)[C@H](Cc1ccc(O)cc1)NC(=O)[C@H](CO)NC(=O)[C@H](CO)NC(=O)[C@@H](NC(=O)[C@H](CC(=O)O)NC(=O)[C@H](CO)NC(=O)[C@@H](NC(=O)[C@H](Cc1ccccc1)NC(=O)[C@@H](NC(=O)CNC(=O)[C@H](CCC(=O)O)NC(=O)C(C)(C)NC(=O)[C@@H](N)Cc1c[nH]cn1)[C@@H](C)O)[C@@H](C)O)C(C)C)C(=O)N[C@@H](C)C(=O)N[C@@H](Cc1c[nH]c2ccccc12)C(=O)N[C@@H](CC(C)C)C(=O)N[C@H](C(=O)N[C@@H](CCCNC(=N)N)C(=O)NCC(=O)N[C@@H](CCCNC(=N)N)C(=O)N[C@@H](CCCCNC(=O)[C@@H](N)CCCCNC(=O)COCCOCCNC(=O)CC[C@H](NC(=O)CC[C@H](NC(=O)CCCCCCCCCCCOc1ccc(C(=O)O)cc1)C(=O)O)C(=O)O)C(=O)O)C(C)C [Example 15, N^ε26-[(2S)-2-amino-6-[[2-[2-[2-[[(4S)-4-carboxy-4-[[(4S)-4-carboxy-4-[12-(4-carboxyphenoxy)dodecanoylamino]butanoyl]amino]butanoyl]amino]ethoxy]ethoxy]acetyl]amino]hexanoyl], N^ε37-[(2S)-2-amino-6-[[2-[2-[2-[[(4S)-4-carboxy-4-[[(4S)-4-carboxy-4-[12-(4-carboxyphenoxy)dodecanoylamino]butanoyl]amino]butanoyl]amino]ethoxy]ethoxy]acetyl]amino]hexanoyl]-[Aib^8,Arg^34,Lys^37]-GLP-1-(7-37)-peptide]	–	0.327	93	0.0037

Further lines, with some results ahead:

EC50 [1] [nM]	EC50 [2] [nM]	Compound	EC50/pM (ratio 1% HSA/0% HSA)	EC50 [3] [nM]
0.008	3.63	CC[C@H](C)[C@H](NC(=O)[C@H](Cc1ccccc1)NC(=O)[C@H](CCC(=O)O)NC(=O)[C@H](CCCCNC(=O)[C@@H](N)CCCCNC(=O)COCCOCCNC(=O)COCCOCCNC(=O)CC[C@H](NC(=O)CCCCCCCCCCCCCCC(=O)O)C(=O)O)NC(=O)[C@H](C)NC(=O)[C@H](C)NC(=O)[C@H](CCC(N)=O)NC(=O)CNC(=O)[C@H](CCC(=O)O)NC(=O)[C@H](CC(C)C)NC(=O)[C@H](Cc1ccc(O)cc1)NC(=O)[C@H](CO)NC(=O)[C@H](CO)NC(=O)[C@@H](NC(=O)[C@H](CC(=O)O)NC(=O)[C@H](CO)NC(=O)[C@@H](NC(=O)[C@H](Cc1ccccc1)NC(=O)[C@@H](NC(=O)CNC(=O)[C@H](CCC(=O)O)NC(=O)C(C)(C)NC(=O)[C@@H](N)Cc1c[nH]cn1)[C@@H](C)O)[C@@H](C)O)C(C)C)C(=O)N[C@@H](C)C(=O)N[C@@H](Cc1c[nH]c2ccccc12)C(=O)N[C@@H](CC(C)C)C(=O)N[C@H](C(=O)N[C@@H](CCCNC(=N)N)C(=O)NCC(=O)N[C@@H](CCCNC(=N)N)C(=O)N[C@@H](CCCCNC(=O)[C@@H](N)CCCCNC(=O)COCCOCCNC(=O)COCCOCCNC(=O)CC[C@H](NC(=O)CCCCCCCCCCCCCCC(=O)O)C(=O)O)C(=O)O)C(C)C [Example 10, N^ε26-[(2S)-2-amino-6-[[2-[2-[2-[[2-[2-[2-[[(4S)-4-carboxy-4-(15-carboxypentadecanoylamino)butanoyl]amino]ethoxy]ethoxy]acetyl]amino]ethoxy]ethoxy]acetyl]amino]hexanoyl], N^ε37-[(2S)-2-amino-6-[[2-[2-[2-[[2-[2-[2-[[(4S)-4-carboxy-4-(15-carboxypentadecanoylamino)butanoyl]amino]ethoxy]ethoxy]acetyl]amino]ethoxy]ethoxy]acetyl]amino]hexanoyl]-[Aib^8,Arg^34,Lys^37]-GLP-1-(7-37)-peptide]	–	–
0.0055	1.15	CC[C@H](C)[C@H](NC(=O)[C@H](Cc1ccccc1)NC(=O)[C@H](CCC(=O)O)NC(=O)[C@H](CCCCNC(=O)[C@@H](N)CCCCNC(=O)[C@@H](N)CCCCNC(=O)CC[C@H](NC(=O)CC[C@H](NC(=O)CCCCCCCCCCCCCCC(=O)O)C(=O)O)C(=O)O)NC(=O)[C@H](C)NC(=O)[C@H](C)NC(=O)[C@H](CCC(N)=O)NC(=O)CNC(=O)[C@H](CCC(=O)O)NC(=O)[C@H](CC(C)C)NC(=O)[C@H](Cc1ccc(O)cc1)NC(=O)[C@H](CO)NC(=O)[C@H](CO)NC(=O)[C@@H](NC(=O)[C@H](CC(=O)O)NC(=O)[C@H](CO)NC(=O)[C@@H](NC(=O)[C@H](Cc1ccccc1)NC(=O)[C@@H](NC(=O)CNC(=O)[C@H](CCC(=O)O)NC(=O)C(C)(C)NC(=O)[C@@H](N)Cc1c[nH]cn1)[C@@H](C)O)[C@@H](C)O)C(C)C)C(=O)N[C@@H](C)C(=O)N[C@@H](Cc1c[nH]c2ccccc12)C(=O)N[C@@H](CC(C)C)C(=O)N[C@H](C(=O)N[C@@H](CCCNC(=N)N)C(=O)NCC(=O)N[C@@H](CCCNC(=N)N)C(=O)N[C@@H](CCCCNC(=O)[C@@H](N)CCCCNC(=O)[C@@H](N)CCCCNC(=O)CC[C@H](NC(=O)CC[C@H](NC(=O)CCCCCCCCCCCCCCC(=O)O)C(=O)O)C(=O)O)C(=O)O)C(C)C [Example 12, N^ε26-[(2S)-2-amino-6-[[(2S)-2-amino-6-[[(4S)-4-carboxy-4-[[(4S)-4-carboxy-4-(15-carboxypentadecanoylamino)butanoyl]amino]butanoyl]amino]hexanoyl]amino]hexanoyl], N^ε37-[(2S)-2-amino-6-[[(2S)-2-amino-6-[[(4S)-4-carboxy-4-[[(4S)-4-carboxy-4-(15-carboxypentadecanoylamino)butanoyl]amino]butanoyl]amino]hexanoyl]amino]hexanoyl]-[Aib^8,Arg^34, Lys^37]-GLP-1-(7-37)-peptide]	194	–
0.0022	1.38	CC[C@H](C)[C@H](NC(=O)[C@H](Cc1ccccc1)NC(=O)[C@H](CCC(=O)O)NC(=O)[C@H](CCCCNC(=O)[C@@H](N)CCCCNC(=O)CC[C@H](NC(=O)CC[C@H](NC(=O)CC[C@H](NC(=O)CCCCCCCCCCCCCCC(=O)O)C(=O)O)C(=O)O)C(=O)O)NC(=O)[C@H](C)NC(=O)[C@H](C)NC(=O)[C@H](CCC(N)=O)NC(=O)CNC(=O)[C@H](CCC(=O)O)NC(=O)[C@H](CC(C)C)NC(=O)[C@H](Cc1ccc(O)cc1)NC(=O)[C@H](CO)NC(=O)[C@H](CO)NC(=O)[C@@H](NC(=O)[C@H](CC(=O)O)NC(=O)[C@H](CO)NC(=O)[C@@H](NC(=O)[C@H](Cc1ccccc1)NC(=O)[C@@H](NC(=O)CNC(=O)[C@H](CCC(=O)O)NC(=O)C(C)(C)NC(=O)[C@@H](N)Cc1c[nH]cn1)[C@@H](C)O)[C@@H](C)O)C(C)C)C(=O)N[C@@H](C)C(=O)N[C@@H](Cc1c[nH]c2ccccc12)C(=O)N[C@@H](CC(C)C)C(=O)N[C@H](C(=O)N[C@@H](CCCNC(=N)N)C(=O)NCC(=O)N[C@@H](CCCNC(=N)N)C(=O)N[C@@H](CCCCNC(=O)[C@@H](N)CCCCNC(=O)CC[C@H](NC(=O)CC[C@H](NC(=O)CC[C@H](NC(=O)CCCCCCCCCCCCCCC(=O)O)C(=O)O)C(=O)O)C(=O)O)C(=O)O)C(C)C [Example 13, N^ε26-[(2S)-2-amino-6-[[(4S)-4-carboxy-4-[[(4S)-4-carboxy-4-[[(4S)-4-carboxy-4-(15-carboxypentadecanoylamino)butanoyl]amino]butanoyl]amino]butanoyl]amino]hexanoyl], N^ε37-[(2S)-2-amino-6-[[(4S)-4-carboxy-4-[[(4S)-4-carboxy-4-[[(4S)-4-carboxy-4-(15-carboxypentadecanoylamino)butanoyl]amino]butanoyl]amino]butanoyl]amino]hexanoyl]-[Aib^8,Arg^34,Lys^37]-GLP-1-(7-37)-peptide]	659	–
